From patent US9642825B2, “Bio-available N-acetyl creatine species and compositions thereof” (4141 HOLDINGS, LLC, priority 2014, dated 2017)
Values belong to the compound of their own block, whether it stands above or below them.

Key:
Solubility in water = assay type: physicochemical
[1] = Dissolution time of 1 gram in distilled water at room temperature; assay type: physicochemical; conditions: 75 RPM
[2] = system: muscle strength and weightlifting performance; conditions: cited from earlier work
[3] = system: person with myasthenia gravis; conditions: five grams daily, resistance training 3 times per week for 15 weeks; cited from earlier work
myostatin = conditions: cited from earlier work
[4] = Dissolution time of 1 gram in 0.1N HCl (pH 1.2); assay type: physicochemical; conditions: 1.000 Gram in 900 ml 0.1N HCl in Water, pH = 1.2, 73 C., 75 RPM
human fibroblasts = conditions: cited from earlier work
[5] = Chemical stability in aqueous media (conversion to creatinine); assay type: physicochemical
Experimental: As may be seen, 1 gram of N-acetyl creatine dissolves faster than other creatine derivatives, except creatine ethyl ester HCl, designated Creatine EE Hcl—(High Creatine Conversion) in FIG. 1. However, this shorter dissolution time may be deceiving. […] Instead, Creatine ethyl ester HCl decomposes into creatinine in a matter of 2 to 3 minutes. Creatinine is an excretory byproduct produced from the breakdown of creatine phosphate and offers none of the numerous benefits of creatine. In other words, Creatine ethyl ester HCl is unstable and its rapid conversion to creatinine makes it ineffective in delivering bioavailable creatine to the body.

[6] = 1.000 g in 900 ml Distilled Water, L-leucine versus N-acetyl L-leucine
[7] = creatine supplementation plus resistance training
[8] = versus placebo ingestion during resistance training
[9] = 1.000 Gram in 900 ml Distilled Water, creatine types

Compound: CN(CC(=O)O)C(=N)N [creatine, 2-(carbamimidoyl-methyl-amino) acetic acid]
average increase in muscle strength [2, 7]: 20%
average increase in weightlifting performance (maximal repetitions at a given percent of maximal strength) [2, 7]: 26%
average increase in muscle strength, greater than following placebo [2, 8]: 8%
average increase in weightlifting performance, greater than following placebo [2, 8]: 14%
improved peak strength [3]: up to 37%
increase in body weight [3]: 7%
increase in fat free mass [3]: 4%
myostatin blocked in muscle (myostatin): 60%

Compound: CCCCCCCCCCCCOC(=O)CN(C)C(=N)N [dodecyl creatine ester]
increase compared with the endogenous creatine content (human fibroblasts): 20 fold

Compound: CN(CC(=O)O)C(=N)N.O=C(O)CC(O)(CC(=O)O)C(=O)O [Creatine Citrate]
Time (Minutes) to dissolve [1, 9]: 10.10 min

Compound: Creatine Taurinate
Time (Minutes) to dissolve [4]: 10.30 min
Time (Minutes) to dissolve [1, 9]: 15.85 min

Compound: CN(CC(=O)O)C(=N)N.O=[N+]([O-])O [Creatine Nitrate]
Time (Minutes) to dissolve [1, 9]: 9.12 min

Compound: CN(CC(=O)O)C(=N)N.O [Creatine Monohydrate]
Time (Minutes) to dissolve [1, 9]: 14.42 min

The remaining lines, values ahead:

solubility in an aqueous medium (in words) (Solubility in water; aqueous medium): very low water solubility
solubility of free leucine relative to N-acetyl-Leucine (Solubility in water; aqueous medium): ten times greater
Time (Minutes) to dissolve [1, 6]: 12.82 min
Compound: CC(C)C[C@H](N)C(=O)O [Leucine, L-leucine]

Time (Minutes) to dissolve [4]: 3.08 min
Time (Minutes) to dissolve [1, 9]: 9.05 min
Compound: CC(C)C[C@H](NC(=O)CN(C)C(=N)N)C(=O)O [Creatyl-L-Leucine]

Time (Minutes) to dissolve [4]: 0.95 min
Time (Minutes) to dissolve [1, 9]: 1.68 min
stability in solution (in words) [5]: unstable
Compound: CCOC(=O)CN(C)C(=N)N.Cl [Creatine ethyl ester HCl]

Time (Minutes) to dissolve [4]: 6.33 min
Time (Minutes) to dissolve [1, 9]: 25.02 min
Compound: CN(CC(=O)N[C@@H](CCC(N)=O)C(=O)O)C(=N)N [Creatyl-L-Glutamine]

solubility in an aqueous medium (in words) (Solubility in water; aqueous medium): extremely poor solubility
Time (Minutes) to dissolve [1, 6]: 120.17 min
Compound: CC(=O)N[C@@H](CC(C)C)C(=O)O [N-Acetyl Leucine, N-acetyl L-leucine]

Time (Minutes) to dissolve [4]: 2.17 min
times more soluble than the parent compound creatine (Solubility in water): 30 times
increase of solubility with respect to creatine monohydrate (Solubility in water; water): 30 fold
solubility in water (Solubility in water; water): 400 grams/1 liter
Time (Minutes) to dissolve [1, 9]: 3.70 min
stability in solution (in words) [5]: remains stable in solution
Compound: CC(=O)NC(=N)N(C)CC(=O)O [N-acetyl creatine]
